Experimental data reported in US9302999B2, “Substituted triazoles as herbicides” (E. I. DU PONT DE NEMOURS AND COMPANY, priority 2012, dated 2016).

How the values were obtained:
[1] = tested on: pigweed (Amaranthus retroflexus); assay: Test F postemergence: pigweed; type: in vivo; settings: scale 0 to 100
From the text: Seeds of plant species selected from corn (Zea mays), soybean (Glycine max), velvetleaf (Abutilon theophrasti), lambsquarters (Chenopodium album), poinsettia, wild (wild poinsettia, Euphorbia heterophylla), pigweed, palmer (palmer pigweed, Amaranthus palmeri), waterhemp (common waterhemp, Amaranthus rudis), surinam grass (Brachiaria decumbens), crabgrass, Brazil (Brazilian crabgrass, Digitaria horizontalis), panicum, fall (fall panicum Panicum dichotomiflorum), crabgrass, large (large crabgrass, Digitaria sanguinalis), foxtail, giant (giant foxtail, Setaria faberii), foxtail, green (green foxtail Setaria viridis), goosegrass (Eleusine indica), ragweed (common ragweed, Ambrosia elatior), barnyardgrass (Echinochloa crus-galli), sandbur (southern sandbur, Cenchrus echinatus), arrowleaf sida (Sida rhombifolia), ryegrass, Italian (Italian ryegrass, Lolium multiflorum), dayflower, VA (Virginia (VA) dayflower, Commelina virginica), field bindweed (Convolvulus arvensis), cocklebur (common cocklebur, Xanthium strumarium), morningglory (Ipomoea coccinea), nightshade (eastern black nightshade, Solanum ptycanthum), kochia (Kochia scoparia), nutsedge, yellow (yellow nutsedge, Cyperus esculentus), johnsongrass (Sorghum halepense), smartweed (ladysthumb smartweed, Polygonum persicaria), and beggarticks (hairy beggarticks, Bidens pilosa), were planted into a silt loam soil and treated preemergence with test chemicals formulated in a non-phytotoxic solvent mixture which included a surfactant. At the same time, plants selected from these crop and weed species and also pigweed (Amaranthus retroflexus), waterhemp_RES1 (ALS/Triazine resistant common waterhemp, Amaranthus rudis) and waterhemp_RES2 (ALS/HPPD resistant common waterhemp, Amaranthus rudis) were planted in pots containing a planting medium comprising spaghnum peat moss, vermiculite, wetting agent and starter nutrients treated with postemergence applications of some of the test chemicals formulated in the same manner. Plants ranged in height from 2 to 18 cm for postemergence treatments (1- to 4-leaf stage).
Treated plants and controls were maintained in a greenhouse for 14 to 21 days, after which time all species were compared to controls and visually evaluated. Plant response ratings, summarized in Table E, are based on a scale of 0 to 100 where 0 is no effect and 100 is complete control. A dash (-) response means no test result.

[2] = tested on: Waterhemp; assay: Test C preemergence: waterhemp; type: in vivo; settings: scale 0 (no effect) to 100 (complete control)

Structure (SMILES)	Plant response rating, Pigweed ([1]; 8 g ai/ha)	Plant response rating, Pigweed ([1]; 16 g ai/ha)	Plant response rating, Pigweed ([1]; 31 g ai/ha)	Plant response rating, Pigweed ([1]; 62 g ai/ha)	Plant response rating, Pigweed ([1]; 125 g ai/ha)	Plant response rating, Waterhemp ([2]; 31 g ai/ha)	Plant response rating, Waterhemp ([2]; 16 g ai/ha)
Cc1nn(-c2ccnc(Cl)c2)nc1Cc1ccnc(C(F)(F)F)c1 [Compound 141]	90	95	95	95	95	–	–
CCOc1nn(-c2ccc(F)cc2)nc1Cc1ccnc(C(F)(F)F)c1 [Compound 196, 4-[[5-ethoxy-2-(4-fluorophenyl)-2H-1,2,3-triazol-4-yl]methyl]-2-(trifluoromethyl)pyridine]	85	95	95	95	95	–	–
CCOc1nn(-c2ccc(Cl)cc2)nc1Cc1ccnc(C(F)(F)F)c1 [Compound 188]	–	–	–	–	–	100	–
FCc1nn(-c2ccc(F)cc2)nc1Oc1ccnc(C(F)(F)F)c1 [Compound 160]	–	–	–	–	–	–	100
